Measured values taken from US11028090B2 (Dong Wha Pharm. Co., Ltd., priority 2017, dated 2021).
Where a name gives a salt, the structure may show the parent alone. Read-outs that look alike come from different tables or passages of the source.

Experiments:
[1] = system: acute myelogenous leukemia cells (MV-4-11 cells); experiment: Cytotoxicity to acute myelogenous leukemia cells (MV-4-11 cells), CCK-8; settings: Homo sapiens, MV4-11, 72 h
[2] = biological target: BRD4 (BD1+BD2) bromodomain (Homo sapiens (Human), UniProt O60885); experiment: BRD4 binding inhibition (AlphaScreen, GST-BRD4 vs tetraacetylated histone H4 peptide)
In short: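 AlphaScreen read after 30 min dark incubation at room temperature with glutathione acceptor/streptavidin donor beads (10 μg/ml each). The beads were added to compound plus 100 nM biotin-H4 (K5,8,12,16-acetyl) peptide and 100 nM GST-BRD4 BD1+BD2 in pH 7.4 HEPES/Tween/BSA/DTT buffer.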

[3] = read-out: IC50, cytotoxicity against acute myelogenous leukemia cells
[4] = read-out: MV-4-11 Cytotoxicity IC50
[5] = GST-BRD4 (BD1+BD2) / biotinylated acetyl-histone H4 (Lys5,8,12,16) peptide, read-out: IC50, BRD4 binding inhibition
[6] = GST-BRD4 (BD1+BD2) vs biotinylated acetyl-histone H4 peptide, AlphaScreen, read-out: BRD4 IC50

Compound | IC50 [1, 3] [nM] | IC50 [1, 4] [nM] | IC50 [2, 5] [nM] | IC50 [2, 6] [nM] | IC50 ([2]; IC50, BRD4 binding inhibition, GST-BRD4 (BD1+BD2) / biotinylated acetyl-histone H4 (Lys5,8,12,16) peptide) [nM]
COc1ccc2c(c1)nc(NCCCCNC(=O)SC(C)C)c1nnc(C)n12 [Example 336, [4-(7-methoxy-1-methyl-[1,2,4]triazolo[4,3-a]quinoxaline-4-ylamino)-butyl]-thiocarbamic acid-S-isopropyl ester] | ≤ 200 | 80 | ≤ 50 | 33 | –
CCOc1cc2nc(NCCCCNC(=O)OCC(C)C)c3nnc(C)n3c2cc1OCC [Example 176, [4-(7,8-diethoxy-1-methyl-[1,2,4]triazolo[4,3-a]quinoxaline-4-ylamino)-butyl]-carbamic acid isobutylester] | ≤ 200 | 110 | ≤ 10 | 2 | –
COCCOc1cc2nc(NCCCCNC(=O)C(C)(C)C)c3nnc(C)n3c2cc1OCCOC [Example 164, N-{4-[7,8-bis-(2-methoxy-ethoxy)-1-methyl-[1,2,4]triazolo[4,3-a]quinoxaline-4-ylamino]-butyl}-2,2-dimethyl-propionamide] | – | 570 | ≤ 50 | 37 | –
COc1ccccc1C(=O)NCCCCNc1nc2cc(-c3nc4ccccc4n3C)ccc2n2c(C)nnc12 [Example 237, 2-methoxy-N-{4-[1-methyl-7-(1-methyl-1H-benzoimidazole-2-yl)-[1,2,4]triazolo[4,3-a]quinoxaline-4-ylamino]-butyl}-benzamide] | – | 500 | ≤ 10 | 0.6 | –
Cc1nnc2c(NCCCCNC(=O)CC(C)C)nc3cc(OCc4ccc(-c5nnn(C)n5)cc4)ccc3n12 [Example 349, 3-methyl-N-(4-{1-methyl-7-[4-(2-methyl-2H-tetrazolo-5-yl)-benzyloxy]-[1,2,4]triazolo[4,3-a]quinoxaline-4-ylamino}-butyl)-butyramide] | ≤ 200 | 160 | – | 55 | –
Cc1nnc2c(NCCCCNC(=O)CC(C)C)nc3ccc([N+](=O)[O-])cc3n12 [Example 550, 3-methyl-N-[4-(1-methyl-8-nitro-[1,2,4]triazolo[4,3-a]quinoxaline-4-ylamino)-butyl]-butyramide] | ≤ 200 | 157 | ≤ 50 | 21 | –
COc1cc2nc(NCCCCNC(=O)CC(C)C)c3nnc(C)n3c2cc1N [Example 556, N-[4-(8-amino-7-methoxy-1-methyl-[1,2,4]triazolo[4,3-a]quinoxaline-4-ylamino)-butyl]-3-methyl-butyramide] | ≤ 200 | 1 | ≤ 50 | 31 | –
COCCOc1ccc2c(c1)nc(NCCCCNC(=O)[C@H](NC(=O)[C@@H](O)C(C)C)C(C)C)c1nnc(C)n12 (stereo in doubt) [Example 403, 2-(S,R)-hydroxy-N-(1-{4-[7-(2-methoxy-ethoxy)-1-methyl-[1,2,4]triazolo[4,3-a]quinoxaline-4-ylamino]-butylcarbamoyl}-2-methyl-propyl)-3-methyl-butyramide] | – | 610 | ≤ 10 | 10 | –
COc1ccc2c(c1)nc(NCCCCNC(=O)[C@@H](C(C)C)N(C)C)c1nnc(C)n12 [Example 312, 2-(R)-dimethylamino-N-[4-(7-methoxy-1-methyl-[1,2,4]triazolo[4,3-a]quinoxaline-4-ylamino)-butyl]-3-methyl-butyramide] | – | 510 | ≤ 50 | 18 | –
CCC(C)C(=O)NCCCCNc1nc2cc(OC(C)C)ccc2n2c(C)nnc12 (centres unmarked) [Example 450, N-[4-(7-isopropoxy-1-methyl-[1,2,4]triazolo[4,3-a]quinoxaline-4-ylamino)-butyl]-2-methyl-butyramide] | – | 270 | ≤ 50 | 19 | –
COc1ccc2c(c1)nc(NCCCCNC(=O)[C@@H](NC(=O)C(C)(C)C)C(C)C)c1nnc(C)n12 [Example 323, (S)-2-(2,2-dimethyl-propionylamino)-N-[4-(7-methoxy-1-methyl-[1,2,4]triazolo[4,3-a]quinoxaline-4-ylamino)-butyl]-3-methyl-butyramide] | ≤ 200 | 107 | ≤ 50 | 35 | –
COc1cc2nc(NCCCCNC(=O)CC(C)C)c3nnc(C)n3c2cc1NC(=O)Nc1ccccc1 [Example 568, N-{4-[7-methoxy-1-methyl-8-(3-phenyl-ureido)-[1,2,4]triazolo[4,3-a]quinoxaline-4-ylamino]-butyl}-3-methyl-butyramide] | – | 658 | ≤ 50 | 28 | –
Cc1nnc2c(NCCCCNC(=O)OC3CCCC3)nc3cc(OCCN4CCOCC4)ccc3n12 [Example 437, {4-[1-methyl-7-(2-morpholine-4-yl-ethoxy)-[1,2,4]triazolo[4,3-a]quinoxaline-4-ylamino]-butyl}-carbamic acid cyclopentylester] | ≤ 200 | 70 | ≤ 50 | 31 | –
Cc1nnc2c(NCCCCNC(=O)CC(C)C)nc3cc(N4CCc5sccc5C4)ccc3n12 [Example 528, N-{4-[7-(6,7-dihydro-4H-thiano[3,2-c]pyridine-5-yl)-1-methyl-[1,2,4]triazolo[4,3-a]quinoxaline-4-ylamino]-butyl}-3-methyl-butyramide] | – | 203 | ≤ 50 | 15 | –
COCCOc1ccc2c(c1)nc(NCCCCNC(=O)NC(C)C)c1nnc(C)n12 [Example 422, 1-isopropyl-3-{4-[7-(2-methoxy-ethoxy)-1-methyl-[1,2,4]triazolo[4,3-a]quinoxaline-4-ylamino]-butyl}-urea] | – | 450 | ≤ 10 | 3 | –
COCCOc1ccc2c(c1)nc(NCCCCNC(=O)c1ccccc1F)c1nnc(C)n12 [Example 409, 2-fluoro-N-{4-[7-(2-methoxy-ethoxy)-1-methyl-[1,2,4]triazolo[4,3-a]quinoxaline-4-ylamino]-butyl}-benzamide] | – | 380 | ≤ 10 | 9 | –
COc1cc2nc(NCCCCNC(=O)c3ccccc3Cl)c3nnc(C)n3c2cc1C [Example 470] | – | 220 | – | 63 | –
COc1c(C)ccc2c1nc(NCCCCNC(=O)[C@@H](O)C(C)C)c1nnc(C)n12 [Example 137, 2-(S)-hydroxy-N-[4-(6-methoxy-1,7-dimethyl-[1,2,4]triazolo[4,3-a]quinoxaline-4-ylamino)-butyl]-3-methyl-butyramide] | – | 370 | ≤ 10 | 6 | –
CCC(F)(F)C(=O)NCCCCNc1nc2cc(-c3nc4ccccc4n3C)ccc2n2c(C)nnc12 [Example 233, 2,2-difluoro-N-{4-[1-methyl-7-(1-methyl-1H-benzoimidazole-2-yl)-[1,2,4]triazolo[4,3-a]quinoxaline-4-ylamino]-butyl}-butyramide] | ≤ 200 | 71 | ≤ 10 | 2 | –
COc1ccc2c(c1)nc(NCCCCNC(=O)C(C)C)c1nnc(C)n12 [Example 281, N-[4-(7-methoxy-1-methyl-[1,2,4]triazolo[4,3-a]quinoxaline-4-ylamino)-butyl]-isobutyramide] | ≤ 200 | 158 | ≤ 10 | 0.4 | –
Cc1nnc2c(NCCCCNC(=O)[C@@H](O)C(C)C)nc3cc(OCCN4CCOCC4)ccc3n12 [Example 435, 2-(S)-hydroxy-N-{4-[7-(2-morpholine-4-yl-ethoxy)-1-methyl-[1,2,4]triazolo[4,3-a]quinoxaline-4-ylamino]-butyl}-3-methyl-butyramide] | – | 110 | ≤ 10 | 8 | –
Cc1noc(C)c1-c1ccc2c(c1)nc(NCCCCNC(=O)CC(C)C)c1nnc(C)n12 [Example 585, N-{4-[7-(3,5-dimethyl-isoxazol-4-yl)-1-methyl-[1,2,4]triazolo[4,3-a]quinoxaline-4-ylamino]-butyl}-3-methyl-butyramide] | – | 280 | ≤ 10 | 5 | –
Cc1nnc2c(NCCCCNC(=O)[C@@H](N)C(C)C)nc3cc(N4CCOCC4)ccc3n12 [Example 503, 2-(S)-amino-3-methyl-N-[4-(1-methyl-7-morpholine-4-yl-[1,2,4]triazolo[4,3-a]quinoxaline-4-ylamino)-butyl]-butyramide hydrochloride] | – | 575 | – | 63 | –
C/C=C/C(=O)NCCCCNc1nc2cc(OC)ccc2n2c(C)nnc12 [Example 283, butene-2-oic acid-[4-(7-methoxy-1-methyl-[1,2,4]triazolo[4,3-a]quinoxaline-4-ylamino)-butyl]-amide] | – | 176 | – | 51 | –
COc1cc2nc(NCCCCNC(=O)c3ccccn3)c3nnc(C)n3c2cc1OC [Example 105, pyridine-2-carboxylic acid-[4-(7,8-dimethoxy-1-methyl-[1,2,4]triazolo[4,3-a]quinoxaline-4-ylamino)-butyl]-amide] | – | 650 | – | 60 | –
COCCOc1ccc2c(c1)nc(NCCCCNC(=O)Oc1ccccc1)c1nnc(C)n12 [Example 372, {4-[7-(2-methoxy-ethoxy)-1-methyl-[1,2,4]triazolo[4,3-a]quinoxaline-4-ylamino]-butyl}-carbamic acid phenylester] | ≤ 200 | 180 | – | – | ≤ 10
CCC(C)OC(=O)NCCCCNc1nc2cc(OCCOC)ccc2n2c(C)nnc12 (centres unmarked) [Example 368, {4-[7-(2-methoxy-ethoxy)-1-methyl-[1,2,4]triazolo[4,3-a]quinoxaline-4-ylamino]-butyl}-carbamic acid-sec-butylester] | ≤ 200 | 140 | ≤ 10 | 10 | –
